Results on 10 compounds are retold here after paper PMC8651387, “Synthesis and Evaluation of the Acetylcholinesterase Inhibitory Activities of Some Flavonoids Derived from Naringenin” (The Scientific World Journal, 2021).

Molecules are shown by their SMILES. Several values for one entry are separate records, joined by “and”; a condition that tells them apart may be missing. Identical values can stand only once. Like-named read-outs stand apart in the source and are kept apart here.

One data set has as its target AChE (Homo sapiens, UniProt P22303). Kind of data set: biochemical. The conditions noted are these: for IC50: pH 8, 25°C, triplicate.
Data set [1] is described as follows: Solubility in water and solvents (compound description).
Where [2] appears, read: AChE 0.25 UI/mL, read-out: IC50.

AChE, sequence (P22303 32-614): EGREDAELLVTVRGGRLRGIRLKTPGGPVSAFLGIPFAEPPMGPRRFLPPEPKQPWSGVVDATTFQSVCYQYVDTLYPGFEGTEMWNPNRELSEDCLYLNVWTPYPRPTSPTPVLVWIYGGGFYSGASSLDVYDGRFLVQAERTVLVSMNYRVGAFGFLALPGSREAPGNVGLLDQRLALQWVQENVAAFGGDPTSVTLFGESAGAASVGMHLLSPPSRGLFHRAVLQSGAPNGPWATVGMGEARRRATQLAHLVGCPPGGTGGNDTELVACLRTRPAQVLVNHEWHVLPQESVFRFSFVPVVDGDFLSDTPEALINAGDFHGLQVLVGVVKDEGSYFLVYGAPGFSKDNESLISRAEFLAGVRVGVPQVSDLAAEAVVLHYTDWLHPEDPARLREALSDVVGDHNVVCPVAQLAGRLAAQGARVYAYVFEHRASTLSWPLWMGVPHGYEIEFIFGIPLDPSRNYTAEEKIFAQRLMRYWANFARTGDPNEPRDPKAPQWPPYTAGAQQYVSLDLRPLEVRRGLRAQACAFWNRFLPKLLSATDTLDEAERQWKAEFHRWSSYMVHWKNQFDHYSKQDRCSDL

Take `COc1cc(O)c2c(c1)OC(c1ccc(O)cc1)CC2=O` (stereo not drawn) [Compound 1, 4′,5-Dihydroxy-7-methoxyflavanone]: at AChE (IC50, AChE 0.25 UI/mL), the IC50 – broadly, the concentration needed to halve the response being measured – is over 100 µM.

Consider `COc1ccc(C2CC(=O)c3c(O)cc(OC)cc3O2)cc1` (stereo not drawn) [Compound 2, 5-Hydroxy-4′,7-dimethoxyflavanone], for which, on AChE, the “AChE inhibitory activity (in words)” value was “improved activities over naringenin”. Also, the IC50 on AChE (setting [2]) was < 100 µM and 75 µM. In addition, in data set [1], the Solubility in acetone result was “soluble”, the Solubility in dichloromethane result was “highly soluble”, the Solubility in methanol entry is “sparingly soluble” and the Solubility in water entry was “insoluble”.

Regarding `COc1ccc(/C=C/C(=O)c2c(OC)cc(OC)cc2OC)cc1` [Compound 3, (E)-2′,4,4′,6′-Tetramethoxychalcone], the IC50 against AChE (IC50, AChE 0.25 UI/mL) was over 100 µM. In data set [1], the Solubility in acetone result is “soluble”, the Solubility in dichloromethane result is “highly soluble”, the Solubility in methanol entry is given as “sparingly soluble” and the Solubility in water entry is given as “insoluble”.

Regarding `CCOc1ccc(/C=C/C(=O)c2c(O)cc(OCC)cc2OCC)cc1` [Compound 4, (E)-2′,4,4′-Triethoxy-6′-hydroxychalcone], the “AChE inhibitory activity (in words)” value on AChE was “improved activities over naringenin”. Also, at AChE (setting [2]), the IC50 is < 100 µM and 39.8 µM. Further, in data set [1], the Solubility in acetone entry is recorded as “soluble”, the Solubility in dichloromethane entry was “highly soluble”, the Solubility in methanol result is “slightly soluble” and the Solubility in water result is “insoluble”.

`C=CCOc1cc(O)c2c(c1)OC(c1ccc(O)cc1)CC2=O` (stereo not drawn) [Compound 5, 7-Allyloxy-4′,5-dihydroxyflavanone]: the “AChE inhibitory activity (in words)” value at AChE is “improved activities over naringenin”. Besides, on AChE (setting [2]), the IC50 was < 100 µM and 48.4 µM. Moreover, in data set [1], the Solubility in acetone result was “highly soluble”, the Solubility in dichloromethane result was “sparingly soluble”, the Solubility in methanol result was “sparingly soluble” and the Solubility in water result was “insoluble”.

As to `C=CCOc1ccc(C2CC(=O)c3c(O)cc(OCC=C)cc3O2)cc1` (stereo not drawn) [Compound 6, 4′,7-Diallyloxy-5-hydroxyflavanone], the “AChE inhibitory activity (in words)” value on AChE is listed as “negligible biological effects”. At AChE (setting [2]), the IC50 is over 100 µM. In data set [1], the Solubility in acetone result was “soluble”, the Solubility in dichloromethane result was “highly soluble”, the Solubility in methanol result is reported as “sparingly soluble” and the Solubility in water result was “insoluble”.

As to `C=CCOc1ccc(/C=C/C(=O)c2c(O)cc(OCC=C)cc2OCC=C)cc1` [Compound 7, (E)-2′,4,4′-Triallyloxy-6′-hydroxychalcone], the “AChE inhibitory activity (in words)” value at AChE is recorded as “improved activities over naringenin”. Also, the IC50 on AChE (setting [2]) is < 100 µM and 13 µM. In data set [1], the Solubility in acetone result was “soluble”, the Solubility in dichloromethane entry is “highly soluble”, the Solubility in methanol result was “sparingly soluble” and the Solubility in water entry is reported as “insoluble”.

On to `O=C(/C=C/c1ccc(OCc2ccccc2)cc1)c1c(O)cc(OCc2ccccc2)cc1OCc1ccccc1` [Compound 8, (E)-2′,4,4′-Tribenzyloxy-6′-hydroxychalcone], for which the IC50 at AChE (setting [2]) was over 100 µM. Moreover, in data set [1], the Solubility in acetone entry was “soluble”, the Solubility in dichloromethane entry was “soluble”, the Solubility in methanol result is given as “insoluble” and the Solubility in water result is given as “insoluble”.

Turning to `O=C(/C=C/c1ccc(OCc2ccccc2)cc1)c1c(OCc2ccccc2)cc(OCc2ccccc2)cc1OCc1ccccc1` [Compound 9, (E)-2′,4,4′,6′-Tetrabenzyloxychalcone], the “AChE inhibitory activity (in words)” value at AChE is on record as “negligible biological effects”. At AChE (setting [2]), the IC50 is over 100 µM. In data set [1], the Solubility in acetone result is recorded as “soluble”, the Solubility in dichloromethane result is given as “highly soluble”, the Solubility in methanol entry is “slightly soluble” and the Solubility in water result is recorded as “insoluble”.

On AChE (IC50, AChE 0.25 UI/mL), `O=C1C[C@@H](c2ccc(O)cc2)Oc2cc(O)cc(O)c21` [Naringenin] yielded an IC50 of 150 ± 4.6 µM.
